{"source": "patent US11572365B2", "about": "“Crystal form of upadacitinib, preparation method therefor, and use thereof” (CRYSTAL PHARMACEUTICAL (SUZHOU) CO., LTD., priority 2021, dated 2023)", "format_in_all_cases": "physicochemical", "key": {"[1]": {"assay": "DVS humidity cycle 0% RH-95% RH-0% RH, crystalline form by XRPD", "conditions": "XRPD before and after", "experimental": "Dynamic Vapor Sorption (DVS) is measured via an SMS (Surface Measurement Systems Ltd.) intrinsic DVS instrument. Its control software is DVS-Intrinsic control software. Typical parameters for DVS test are as follows: • Temperature: 25° C. • Gas and flow rate: N2, 200 mL/min • RH range: 0% RH to 95% RH\nIt can be seen that Form CSVI has good stability under accelerated conditions. Form CSVI is stable for at least 1 month under 60° C./75% RH (sealed) condition. It can be seen that Form CSVI has good stability under more stressed condition as well. Approximately 10 mg of Form CSVI in the present disclosure underwent a humidity cycle of 0% RH-95% RH-0% RH with a dynamic vapor sorption (DVS) analyzer.\nApproximately 10 mg of Form CSVII in the present disclosure underwent a humidity cycle of 0% RH-95% RH-0% RH with a dynamic vapor sorption (DVS) analyzer."}, "[2]": {"assay": "Stability of drug substance on storage (XRPD crystalline form, HPLC purity)", "conditions": "for Chemical purity during storage: storage conditions of the stability test", "experimental": "The method parameters for related substances test in the present disclosure are as follows:\n(§1) Approximately 5 mg of Form CSVI in the present disclosure was stored under 40° C./75% RH and 60° C./75% RH conditions. The purity and crystalline form were tested before and after storage by HPLC and XRPD. The results are listed in Table 3 and the XRPD overlay is substantially as depicted in FIG. 4.\nas §1, with “CSVII” for “CSVI”, “under 25° C./60% RH,” for “under”, “6” for “3”, “10.” for “4.”"}, "[3]": {"assay": "Crystalline form before and after formulation process (XRPD)"}, "[4]": {"assay": "Kinetic solubility in FeSSIF, FaSSIF and pH 7.4 PBS (HPLC)", "conditions": "for solubility at 24 h / solubility at 48 h: thermodynamic from solid", "experimental": "The method parameters of kinetic solubility test in the present disclosure are as follows:\n(§2) Approximately 15-30 mg of Form CSVI in the present disclosure was suspended into 1.8 mL of FeSSIF, 1.8 mL of FaSSIF and 1.8 mL of pH=7.4 PBS. After equilibration for 24 hours and 48 hours, the concentration of upadacitinib in saturated solutions were tested by HPLC and the results are listed in Table 2.\nas §2, with “CSVII” for “CSVI”, “was” for “were”, “5.” for “2.”"}, "[5]": {"conditions": "25° C./60% RH, Sealed, 6 months"}, "[6]": {"conditions": "40° C./75% RH, Sealed, 6 months"}}, "data": [{"smiles": "CC[C@@H]1CN(C(=O)NCC(F)(F)F)C[C@@H]1c1cnc2cnc3[nH]ccc3n12", "note": "[Form CSVII, (3S,4R)-3-ethyl-4-(3H-imidazo[1,2-a]pyrrolo[2,3-e]pyrazin-8-yl)-N-(2,2,2-trifluoroethyl) pyrrolidine-1-carboxamide]", "values": [{"measurement": "Form change after DVS test", "setting": "[1]", "result": "no form change is observed"}, {"measurement": "Purity", "setting": "[2]; 25° C./60% RH, Open, 6 months", "result": 99.91, "unit": "%"}, {"measurement": "Solid form", "setting": "[2]; 25° C./60% RH, Open, 6 months", "result": "Form CSVII"}, {"measurement": "Purity", "setting": "[2]; [5]", "result": 99.92, "unit": "%"}, {"measurement": "Solid form", "setting": "[2]; [5]", "result": "Form CSVII"}, {"measurement": "Purity", "setting": "[2]; [6]", "result": 99.92, "unit": "%"}, {"measurement": "Solid form", "setting": "[2]; [6]", "result": "Form CSVII"}, {"measurement": "Purity", "setting": "[2]; 60° C./75% RH, Sealed, 1 month", "result": 99.92, "unit": "%"}, {"measurement": "Solid form", "setting": "[2]; 60° C./75% RH, Sealed, 1 month", "result": "Form CSVII"}, {"measurement": "Purity", "setting": "[2]; Initial", "result": 99.92, "unit": "%"}, {"measurement": "Solid form", "setting": "[2]; Initial", "result": "Form CSVII"}, {"measurement": "Chemical purity during storage", "setting": "[2]", "result": "above 99.9%"}, {"measurement": "Physical stability after formulation procedure", "setting": "[3]", "result": "physically stable"}, {"measurement": "Solubility", "setting": "[4]; FaSSIF (pH 6.5, 37° C.), 24 hours", "result": 2020, "unit": "µg/mL"}, {"measurement": "Solubility", "setting": "[4]; FaSSIF (pH 6.5, 37° C.), 48 hours", "result": 2170, "unit": "µg/mL"}, {"measurement": "Solubility", "setting": "[4]; FeSSIF (pH 5.0, 37° C.), 24 hours", "result": 2280, "unit": "µg/mL"}, {"measurement": "Solubility", "setting": "[4]; FeSSIF (pH 5.0, 37° C.), 48 hours", "result": 2470, "unit": "µg/mL"}, {"measurement": "Solubility", "setting": "[4]; pH 7.4, 25° C., 24 hours", "result": 920, "unit": "µg/mL"}, {"measurement": "Solubility", "setting": "[4]; pH 7.4, 25° C., 48 hours", "result": 850, "unit": "µg/mL"}]}, {"smiles": "CC[C@@H]1CN(C(=O)NCC(F)(F)F)C[C@@H]1c1cnc2cnc3[nH]ccc3n12", "note": "[Form CSVI, (3S,4R)-3-ethyl-4-(3H-imidazo[1,2-a]pyrrolo[2,3-e]pyrazin-8-yl)-N-(2,2,2-trifluoroethyl) pyrrolidine-1-carboxamide]", "values": [{"measurement": "Form change after DVS test", "setting": "[1]", "result": "no form change is observed"}, {"measurement": "Time for which the form is stable (crystalline state unchanged)", "setting": "[2]; 40° C./75% RH (open)", "result": "at least 6 months"}, {"measurement": "Time for which the form is stable (crystalline state unchanged)", "setting": "[2]; 40° C./75% RH (sealed)", "result": "at least 6 months"}, {"measurement": "Purity", "setting": "[2]; 40° C./75% RH, Open, 6 months", "result": 99.89, "unit": "%"}, {"measurement": "Solid form", "setting": "[2]; 40° C./75% RH, Open, 6 months", "result": "Form CSVI"}, {"measurement": "Purity", "setting": "[2]; [6]", "result": 99.92, "unit": "%"}, {"measurement": "Solid form", "setting": "[2]; [6]", "result": "Form CSVI"}, {"measurement": "Time for which the form is stable (crystalline state unchanged)", "setting": "[2]; 60° C./75% RH (sealed)", "result": "at least 1 month"}, {"measurement": "Purity", "setting": "[2]; 60° C./75% RH, Sealed, 1 month", "result": 99.91, "unit": "%"}, {"measurement": "Solid form", "setting": "[2]; 60° C./75% RH, Sealed, 1 month", "result": "Form CSVI"}, {"measurement": "Purity", "setting": "[2]; Initial", "result": 99.89, "unit": "%"}, {"measurement": "Solid form", "setting": "[2]; Initial", "result": "Form CSVI"}, {"measurement": "Chemical purity during storage", "setting": "[2]", "result": "above 99.8%"}, {"measurement": "Physical stability after formulation procedure", "setting": "[3]", "result": "physically stable"}, {"measurement": "solubility at 24 h", "setting": "[4]; FaSSIF, 37 °C, pH 6.5, fassif, FaSSIF (pH 6.5, 37° C.), 24 hours", "result": 1870, "unit": "µg/mL"}, {"measurement": "solubility at 48 h", "setting": "[4]; FaSSIF, 37 °C, pH 6.5, fassif, FaSSIF (pH 6.5, 37° C.), 48 hours", "result": 1710, "unit": "µg/mL"}, {"measurement": "solubility at 24 h", "setting": "[4]; FeSSIF, 37 °C, pH 5, fessif, FeSSIF (pH 5.0, 37° C.), 24 hours", "result": 2200, "unit": "µg/mL"}, {"measurement": "solubility at 48 h", "setting": "[4]; FeSSIF, 37 °C, pH 5, fessif, FeSSIF (pH 5.0, 37° C.), 48 hours", "result": 2220, "unit": "µg/mL"}, {"measurement": "solubility at 24 h", "setting": "[4]; PBS, 25 °C, pH 7.4, aqueous buffer, pH 7.4, 25° C., 24 hours", "result": 880, "unit": "µg/mL"}, {"measurement": "solubility at 48 h", "setting": "[4]; PBS, 25 °C, pH 7.4, aqueous buffer, pH 7.4, 25° C., 48 hours", "result": 850, "unit": "µg/mL"}]}]}
